Source: paper PMC5218480 (PLoS ONE, 2017)

Test system: MV-4-11 cells
Assay: Gene expression microarray analysis (Affymetrix PrimeView) and GSEA
Format: cell-based, human
Set-up: RFU PODN (11730768_x_at) / Fold change /veh PODN (11730768_x_at) / RFU LINC00158 (11744669_a_at) / Fold change /veh LINC00158 (11744669_a_at) / RFU DUSP10 (11751237_a_at) / Fold change /veh DUSP10 (11751237_a_at) / RFU ID3 (11757404_x_at) / Fold change /veh ID3 (11757404_x_at) / RFU PLEKHG5 (11737974_s_at) / Fold change /veh PLEKHG5 (11737974_s_at) / RFU LRRC4B (11730491_at) / Fold change /veh LRRC4B (11730491_at) / RFU GIMAP4 (11747438_a_at) / Fold change /veh GIMAP4 (11747438_a_at) / RFU KRT8 (11758183_x_at) / Fold change /veh KRT8 (11758183_x_at) / RFU CNN1 (11734310_a_at) / Fold change /veh CNN1 (11734310_a_at) / RFU VPS37D (11726825_at) / Fold change /veh VPS37D (11726825_at) / RFU C10orf10 (11716522_x_at) / Fold change /veh C10orf10 (11716522_x_at) / RFU KIR2DL2 /// KIR2DL4 /// KIR2DL5A /// KIR2DL5B /// KIR2DS1 /// KIR2DS2 /// KIR2DS3 /// KIR2DS4 /// KIR3DL3 /// KIR3DL3 /// KIR3DS1 (11738374_at) / Fold change /veh KIR2DL2 /// KIR2DL4 /// KIR2DL5A /// KIR2DL5B /// KIR2DS1 /// KIR2DS2 /// KIR2DS3 /// KIR2DS4 /// KIR3DL3 /// KIR3DL3 /// KIR3DS1 (11738374_at) / RFU C1QL1 (11718748_at) / Fold change /veh C1QL1 (11718748_at) / RFU TMPRSS4 (11747572_a_at) / Fold change /veh TMPRSS4 (11747572_a_at) / RFU HAMP (11756126_x_at) / Fold change /veh HAMP (11756126_x_at) / RFU RNFT2 (11725882_a_at) / Fold change /veh RNFT2 (11725882_a_at) / RFU NR4A2 (11747474_a_at) / Fold change /veh NR4A2 (11747474_a_at) / RFU ABCC12 (11746883_a_at) / Fold change /veh ABCC12 (11746883_a_at) / RFU TMEM136 (11760407_x_at) / Fold change /veh TMEM136 (11760407_x_at) / RFU CLDN22 /// WWC2 (11732394_at) / Fold change /veh CLDN22 /// WWC2 (11732394_at) / RFU HLA-DPB1 (11760878_x_at) / Fold change /veh HLA-DPB1 (11760878_x_at) / RFU SPINT1 (11716480_a_at) / Fold change /veh SPINT1 (11716480_a_at) / RFU GAP43 (11754022_s_at) / Fold change /veh GAP43 (11754022_s_at) / RFU A4GNT (11735810_at) / Fold change /veh A4GNT (11735810_at) / RFU PRB3 (11715151_x_at) / Fold change /veh PRB3 (11715151_x_at) / RFU TUBB4B (11761932_at) / Fold change /veh TUBB4B (11761932_at) / RFU CAPN14 (11732068_a_at) / Fold change /veh CAPN14 (11732068_a_at) / RFU TMCC2 (11721928_a_at) / Fold change /veh TMCC2 (11721928_a_at) / RFU IRGQ (11745062_a_at) / Fold change /veh IRGQ (11745062_a_at) / RFU FAM174B (11720279_a_at) / Fold change /veh FAM174B (11720279_a_at) / RFU TMPRSS4 (11748680_a_at) / Fold change /veh TMPRSS4 (11748680_a_at) / RFU FAM212B (11763350_a_at) / Fold change /veh FAM212B (11763350_a_at) / RFU PLEKHG5 (11743358_a_at) / Fold change /veh PLEKHG5 (11743358_a_at) / RFU ZSCAN30 (11745921_a_at) / Fold change /veh ZSCAN30 (11745921_a_at) / RFU CMKLR1 (11741424_a_at) / Fold change /veh CMKLR1 (11741424_a_at) / RFU LOC101060620 /// MAPK8IP1 (11723275_at) / Fold change /veh LOC101060620 /// MAPK8IP1 (11723275_at) / RFU SPTSSB (11747773_x_at) / Fold change /veh SPTSSB (11747773_x_at) / RFU PRSS12 (11739890_at) / Fold change /veh PRSS12 (11739890_at) / RFU BIN1 (11741810_x_at) / Fold change /veh BIN1 (11741810_x_at) / RFU WNT11 (11732464_a_at) / Fold change /veh WNT11 (11732464_a_at) / RFU C10orf10 (11716521_a_at) / Fold change /veh C10orf10 (11716521_a_at) / RFU C5orf56 (11738089_at) / Fold change /veh C5orf56 (11738089_at) / RFU CYB561 (11721691_x_at) / Fold change /veh CYB561 (11721691_x_at) / RFU ANKRD19P (11752326_a_at) / Fold change /veh ANKRD19P (11752326_a_at) / RFU OR2T12 /// OR2T33 /// OR2T8 (11738714_s_at) / Fold change /veh OR2T12 /// OR2T33 /// OR2T8 (11738714_s_at) / RFU VCAN (11748164_a_at) / Fold change /veh VCAN (11748164_a_at) / RFU JSRP1 (11732532_at) / Fold change /veh JSRP1 (11732532_at) / RFU KRTAP10-11 (11738290_x_at) / Fold change /veh KRTAP10-11 (11738290_x_at) / RFU MYO3A (11730013_a_at) / Fold change /veh MYO3A (11730013_a_at) / RFU EBF3 (11725865_a_at) / Fold change /veh EBF3 (11725865_a_at) / RFU CAMK2N1 (11719241_x_at) / Fold change /veh CAMK2N1 (11719241_x_at) / RFU C5orf56 (11738088_a_at) / Fold change /veh C5orf56 (11738088_a_at) / RFU OLFML3 (11715873_a_at) / Fold change /veh OLFML3 (11715873_a_at) / RFU LOC100653217 /// NTM (11731650_a_at) / Fold change /veh LOC100653217 /// NTM (11731650_a_at) / RFU MAPK11 (11762145_a_at) / Fold change /veh MAPK11 (11762145_a_at) / RFU FIZ1 (11724087_x_at) / Fold change /veh FIZ1 (11724087_x_at) / RFU OASL (11726364_x_at) / Fold change /veh OASL (11726364_x_at) / RFU SOX15 (11748057_x_at) / Fold change /veh SOX15 (11748057_x_at) / RFU CD79A (11719716_a_at) / Fold change /veh CD79A (11719716_a_at) / RFU HIST1H1D (11736915_at) / Fold change /veh HIST1H1D (11736915_at) / RFU CASKIN2 (11723855_a_at) / Fold change /veh CASKIN2 (11723855_a_at) / RFU LOC730098 (11760151_x_at) / Fold change /veh LOC730098 (11760151_x_at) / RFU OR4N2 (11742367_at) / Fold change /veh OR4N2 (11742367_at) / RFU PRRT2 (11749266_a_at) / Fold change /veh PRRT2 (11749266_a_at) / RFU SNX32 (11753110_a_at) / Fold change /veh SNX32 (11753110_a_at) / RFU CDHR5 (11726645_a_at) / Fold change /veh CDHR5 (11726645_a_at) / RFU RCAN1 (11760418_a_at) / Fold change /veh RCAN1 (11760418_a_at) / RFU FAM167A (11723789_a_at) / Fold change /veh FAM167A (11723789_a_at) / RFU FAM26E (11764081_at) / Fold change /veh FAM26E (11764081_at) / RFU ISYNA1 (11749810_s_at) / Fold change /veh ISYNA1 (11749810_s_at) / RFU ACY1 (11761880_at) / Fold change /veh ACY1 (11761880_at) / RFU 11764098_at / Fold change /veh 11764098_at / RFU SAMD14 (11745864_x_at) / Fold change /veh SAMD14 (11745864_x_at) / RFU NPB (11741838_a_at) / Fold change /veh NPB (11741838_a_at) / RFU TMPRSS6 (11731388_a_at) / Fold change /veh TMPRSS6 (11731388_a_at) / RFU KRTAP10-2 (11738614_at) / Fold change /veh KRTAP10-2 (11738614_at) / RFU ARHGAP8 /// PRR5-ARHGAP8 (11727945_x_at) / Fold change /veh ARHGAP8 /// PRR5-ARHGAP8 (11727945_x_at) / RFU KRTAP5-7 /// NADSYN1 (11734609_at) / Fold change /veh KRTAP5-7 /// NADSYN1 (11734609_at) / RFU RASL12 (11751679_a_at) / Fold change /veh RASL12 (11751679_a_at) / RFU CDKN2B (11736163_a_at) / Fold change /veh CDKN2B (11736163_a_at) / RFU PRF1 (11729649_at) / Fold change /veh PRF1 (11729649_at) / RFU, ZNF638 /// ZNF638-IT1 / Fold change vs veh, ZNF638 /// ZNF638-IT1 / RFU, PANK3 / Fold change vs veh, PANK3 / RFU, SH3YL1 / Fold change vs veh, SH3YL1 / RFU, ZEB2 / Fold change vs veh, ZEB2 / RFU, NRIP1 / Fold change vs veh, NRIP1 / RFU, PTTG1IP / Fold change vs veh, PTTG1IP / RFU, CAPN2 / Fold change vs veh, CAPN2 / RFU, MED14 / Fold change vs veh, MED14 / RFU, SNORA58 / Fold change vs veh, SNORA58 / RFU, C1orf63 / Fold change vs veh, C1orf63 / RFU, LRRFIP1 / Fold change vs veh, LRRFIP1 / RFU, NDUFAF7 / Fold change vs veh, NDUFAF7 / RFU, SLC12A2 / Fold change vs veh, SLC12A2 / RFU, IBTK / Fold change vs veh, IBTK / RFU, ESF1 / Fold change vs veh, ESF1 / Fold change vs veh, TMEM50B / RFU, TAOK1 / Fold change vs veh, TAOK1 / RFU, ACBD3 / Fold change vs veh, ACBD3 / RFU, TMA16 / Fold change vs veh, TMA16 / RFU, RWDD3 / Fold change vs veh, RWDD3 / RFU, BCAT1 / Fold change vs veh, BCAT1 / RFU, EDEM3 / Fold change vs veh, EDEM3 / RFU, TMEM33 / Fold change vs veh, TMEM33 / RFU, WDR75 / Fold change vs veh, WDR75 / RFU, AHCTF1 / Fold change vs veh, AHCTF1 / RFU, TFRC / Fold change vs veh, TFRC / RFU, ZDHHC17 / Fold change vs veh, ZDHHC17 / RFU, NOM1 / Fold change vs veh, NOM1 / RFU, ARL8B / Fold change vs veh, ARL8B / RFU, ZBTB11 / Fold change vs veh, ZBTB11 / RFU, TAMM41 / Fold change vs veh, TAMM41 / RFU, KIAA1704 /// LOC100996395 / Fold change vs veh, KIAA1704 /// LOC100996395 / RFU, ING1 / Fold change vs veh, ING1 / RFU, TRMT61B / Fold change vs veh, TRMT61B / RFU, FUBP3 / Fold change vs veh, FUBP3 / RFU, TP53 / Fold change vs veh, TP53 / RFU, TNKS2 / Fold change vs veh, TNKS2 / RFU, ZFP14 / Fold change vs veh, ZFP14 / RFU, ACTR2 / Fold change vs veh, ACTR2 / RFU, PPP3R1 / Fold change vs veh, PPP3R1 / RFU, PIK3R1 / Fold change vs veh, PIK3R1 / RFU, HNRNPA1 / Fold change vs veh, HNRNPA1 / RFU, RNF170 / Fold change vs veh, RNF170 / RFU, ZNF28 / Fold change vs veh, ZNF28 / RFU, RNGTT / Fold change vs veh, RNGTT / RFU, OGT / Fold change vs veh, OGT / RFU, BRD1 / Fold change vs veh, BRD1 / RFU, MARS / Fold change vs veh, MARS / RFU, ZNF655 / Fold change vs veh, ZNF655 / RFU, FAHD1 / Fold change vs veh, FAHD1 / RFU, BDP1 / Fold change vs veh, BDP1 / RFU, LRRCC1 / Fold change vs veh, LRRCC1 / RFU, ARID1A / Fold change vs veh, ARID1A / RFU, ZNF146 / Fold change vs veh, ZNF146 / RFU, ZNF330 / Fold change vs veh, ZNF330 / RFU, GPN3 / Fold change vs veh, GPN3 / RFU, C9orf123 / Fold change vs veh, C9orf123 / RFU, N4BP2L2 / Fold change vs veh, N4BP2L2 / RFU, ARFIP1 / Fold change vs veh, ARFIP1 / RFU, FAM179B / Fold change vs veh, FAM179B / RFU, BCL10 / Fold change vs veh, BCL10 / RFU, UHRF1BP1L / Fold change vs veh, UHRF1BP1L / RFU, BET1 / Fold change vs veh, BET1 / RFU, CNOT2 / Fold change vs veh, CNOT2 / RFU, ZNF268 / Fold change vs veh, ZNF268 / Fold change vs veh, ZNF507 / RFU, DGCR2 / Fold change vs veh, DGCR2 / RFU, WDSUB1 / Fold change vs veh, WDSUB1 / Fold change vs veh, HSP90B1 /// MIR3652 / RFU, ADSS / Fold change vs veh, ADSS / RFU, GK / Fold change vs veh, GK / RFU, ZNF148 / Fold change vs veh, ZNF148 / RFU, TAF9 / Fold change vs veh, TAF9 / RFU, SLC1A5 / Fold change vs veh, SLC1A5 / RFU, SLMO2 / Fold change vs veh, SLMO2 / RFU, ABCC4 / Fold change vs veh, ABCC4 / RFU, LOC101060439 /// RAP1B / Fold change vs veh, LOC101060439 /// RAP1B / RFU, RFX7 / Fold change vs veh, RFX7 / RFU, GTPBP10 / Fold change vs veh, GTPBP10 / RFU, CNEP1R1 / Fold change vs veh, CNEP1R1 / RFU, BIVM-ERCC5 /// ERCC5 / Fold change vs veh, BIVM-ERCC5 /// ERCC5 / RFU, ILF3 / Fold change vs veh, ILF3 / RFU 11762660_at / Fold change /veh 11762660_at / RFU VCAN (11757783_s_at) / Fold change /veh VCAN (11757783_s_at) / RFU DDX43 (11728927_at) / Fold change /veh DDX43 (11728927_at) / RFU KRT8 (11758188_x_at) / Fold change /veh KRT8 (11758188_x_at) / RFU NKD1 (11759106_at) / Fold change /veh NKD1 (11759106_at) / RFU SRD5A1 (11742802_a_at) / Fold change /veh SRD5A1 (11742802_a_at) / RFU TPSAB1 /// TPSB2 (11721975_s_at) / Fold change /veh TPSAB1 /// TPSB2 (11721975_s_at) / RFU GSTM3 (11746129_a_at) / Fold change /veh GSTM3 (11746129_a_at) / RFU IL23R (11737362_x_at) / Fold change /veh IL23R (11737362_x_at) / RFU TMEM51 (11727254_a_at) / Fold change /veh TMEM51 (11727254_a_at) / RFU PIWIL2 (11732686_x_at) / Fold change /veh PIWIL2 (11732686_x_at) / RFU ORM1 (11744905_x_at) / Fold change /veh ORM1 (11744905_x_at) / RFU CCDC152 (11743942_at) / Fold change /veh CCDC152 (11743942_at) / RFU ECM1 (11717891_a_at) / Fold change /veh ECM1 (11717891_a_at) / RFU IL23R (11748794_a_at) / Fold change /veh IL23R (11748794_a_at) / RFU TNFAIP8L3 (11732012_x_at) / Fold change /veh TNFAIP8L3 (11732012_x_at) / RFU MBOAT4 (11741988_at) / Fold change /veh MBOAT4 (11741988_at) / RFU 11764193_at / Fold change /veh 11764193_at / RFU TMEM53 (11763286_at) / Fold change /veh TMEM53 (11763286_at) / RFU MAGEB2 (11727129_at) / Fold change /veh MAGEB2 (11727129_at) / RFU TMEM200A (11744735_a_at) / Fold change /veh TMEM200A (11744735_a_at) / RFU CCDC152 (11751479_a_at) / Fold change /veh CCDC152 (11751479_a_at) / RFU FAM211A (11726209_a_at) / Fold change /veh FAM211A (11726209_a_at) / RFU RGS16 (11746705_a_at) / Fold change /veh RGS16 (11746705_a_at) / RFU VCAN (11755009_s_at) / Fold change /veh VCAN (11755009_s_at) / RFU RHOB (11743442_s_at) / Fold change /veh RHOB (11743442_s_at) / RFU RGS16 (11720943_a_at) / Fold change /veh RGS16 (11720943_a_at) / RFU RGS16 (11720944_at) / Fold change /veh RGS16 (11720944_at) / RFU, VPS4B / Fold change vs veh, VPS4B / RFU, CREB1 / Fold change vs veh, CREB1 / RFU, DNAJC13 / Fold change vs veh, DNAJC13 / RFU, GNAQ / Fold change vs veh, GNAQ / RFU, CDK5R1 / Fold change vs veh, CDK5R1 / RFU, ZRANB3 / Fold change vs veh, ZRANB3 / RFU, CUL4A / Fold change vs veh, CUL4A / RFU, CCNY / Fold change vs veh, CCNY / RFU, UFL1 / Fold change vs veh, UFL1 / RFU, COG3 / Fold change vs veh, COG3 / RFU, DIAPH2 / Fold change vs veh, DIAPH2 / RFU, SKA2 / Fold change vs veh, SKA2 / RFU, AFF3 / Fold change vs veh, AFF3 / RFU, LMF1 / Fold change vs veh, LMF1 / RFU, IPO11 / Fold change vs veh, IPO11 / RFU, DFFB / Fold change vs veh, DFFB / RFU, FOXP1 / Fold change vs veh, FOXP1 / RFU, CARD8 / Fold change vs veh, CARD8 / RFU, STRN3 / Fold change vs veh, STRN3 / RFU, ADK / Fold change vs veh, ADK / RFU, RASSF2 / Fold change vs veh, RASSF2 / RFU, WIPF1 / Fold change vs veh, WIPF1 / RFU, LARP1B / Fold change vs veh, LARP1B / RFU, RASA1 / Fold change vs veh, RASA1 / RFU, RB1 / Fold change vs veh, RB1 / RFU, PPFIA1 / Fold change vs veh, PPFIA1 / RFU, MAT2A / Fold change vs veh, MAT2A / RFU, CCT5 / Fold change vs veh, CCT5 / RFU, WDR92 / Fold change vs veh, WDR92 / RFU, CUX1 / Fold change vs veh, CUX1 / RFU, TTC7A / Fold change vs veh, TTC7A / RFU, TMEM135 / Fold change vs veh, TMEM135 / RFU, DEPTOR / Fold change vs veh, DEPTOR / RFU, CPM / Fold change vs veh, CPM / RFU, DNAJB6 / Fold change vs veh, DNAJB6 / RFU, CACNA2D3 / Fold change vs veh, CACNA2D3 / RFU, DTX4 / Fold change vs veh, DTX4 / RFU, TFCP2 / Fold change vs veh, TFCP2 / RFU, GMCL1 /// GMCL1P1 / Fold change vs veh, GMCL1 /// GMCL1P1 / RFU, AEBP2 / Fold change vs veh, AEBP2 / RFU, SNHG1 /// SNORD22 /// SNORD25 /// SNORD26 /// SNORD27 /// SNORD28 /// SNORD29 /// SNORD31 / Fold change vs veh, SNHG1 /// SNORD22 /// SNORD25 /// SNORD26 /// SNORD27 /// SNORD28 /// SNORD29 /// SNORD31 / Fold change (Aza/veh), C12orf56 (ProbeSet 11735607_a_at) / Fold change (ACY-1035/veh), C12orf56 (ProbeSet 11735607_a_at) / Fold change (Aza/veh), FGFR1OP (ProbeSet 11751329_s_at) / Fold change (ACY-1035/veh), FGFR1OP (ProbeSet 11751329_s_at) / Fold change (Aza/veh), VPS36 (ProbeSet 11739960_a_at) / Fold change (ACY-1035/veh), VPS36 (ProbeSet 11739960_a_at) / RFU SYPL1 (11715823_x_at) / Fold change /veh SYPL1 (11715823_x_at) / RFU IGFBP7 (11715501_s_at) / Fold change /veh IGFBP7 (11715501_s_at) / RFU REEP3 (11722064_at) / Fold change /veh REEP3 (11722064_at) / RFU IGLL1 (11728026_x_at) / Fold change /veh IGLL1 (11728026_x_at): dose or concentration left out as unconfirmed
Settings: MV-4-11 cells, 48 hours

Compound: Nc1ncn([C@@H]2O[C@H](CO)[C@@H](O)[C@H]2O)c(=O)n1 [azacitidine]
- RFU SPTSSB (11747773_x_at): 34.53 RFU
